Key:
Assay type in all cases: cell-based, human
[1] = test system: NOR1 mRNA; assay: Northern analysis of NOR1 mRNA in primary RA synoviocytes; settings: 1 hour, TNFα 10 ng/mL, PGE2 10^-6 M, vs untreated
Protocol: The pathological importance of the NURR transcription factors in inflammatory joint disease was further examined by determining the ability of proinflammatory agonists to regulate NOR1 transcript levels in primary synoviocytes. (FIG. 14). Expression levels of NOR1 and NURR1 mRNA increased compared to the untreated synoviocytes upon treatment with TNFα.
Northern analysis of primary RA synoviocytes were untreated (lane 1) or treated for 1 hour with TNFα (lane 2), IL-1β (lane 3), and PGE2 (lane 4). TNFα and IL-1β were used at a concentration of 10 ng/mL and PGE2 was at a concentration of 10^-6 M.
(§1) Total RNA was isolated from cultured primary synoviocytes or synovial explants. RNA was quantitated by UV absorption and 10 μg of total RNA were electrophoresed on a standard northern gel and transferred to nylon membrane (BioRad, Richmond, Calif.). NURR1 and NUR77 cDNA probes (Murphy and Conneely, 1997), spanning the amino terminal region to avoid cross-hybridization, were radiolabeled to a high specific activity using [α-^32P] dCTP and a random primer labeling system (Promega, Madison, Wis.). Blots were exposed to film at −80° C. using intensifying screens and autoradiographic intensity was quantitated using an imaging densitometer.

[2] = test system: CRH NBRE; assay: EMSA of synoviocyte nuclear extracts with CRH NBRE; settings: synoviocytes stimulated 1 h; 25 μM forskolin, 10 ng/ml TNFα, IL-1β or PGE2
Protocol: To analyze the effects of cytokines on the ability of NURR1 to bind DNA, EMSA was performed to examine the binding properties of NURR1 to the consensus sequence (NBRE) in the human CRH promoter. […] Binding of the larger protein complex, and to a lesser extent the smaller complex, was inhibited by 50× molar excess of unlabeled homologous oligonucleotide.
Nuclear extracts from untreated, 25 μM forskolin (FOR) or lOng/ml TNFα treated synoviocytes (1 h) were compared for increased binding to the α^32 P-labeled CRH NBRE. DNA-protein interactions were assayed in the presence of 50× molar excess of homologous oligonucleotide or NURR1 specific antiserum (NURR1 Ab).
Nuclear protein extracts were prepared as previously described (Murphy and Conneely, 1997). For the EMSAs, 1 μg of nuclear extract was incubated for 20 mins in the presence of 20 mM Hepes (pH 7.9), 5 mM MgCl2, 20% glycerol, 100 mM KCL, 0.2 mM EDTA, 8% Ficoll, […], 500 ng/μl poly (deoxyinosinicdeoxycytidylic) acid, 50 mM dithiothreitol (DTT) and [α-^32P]-dCTP labeled doublestranded oligonucleotide. For supershifts experiments, antibodies to NURR1 (Santa Cruz Biotechnology, Santa Cruz, Calif.) were added following the initial 20-minute incubation, then incubated for an additional 20 minutes. The samples were electrophoresed through a 5.5% non-denaturing polyacrylamide gel in 0.5× TrisBorate-EDTA (TBE) buffer. For competition studies, the reaction was performed as described with the indicated concentrations of unlabeled probe. The oligonucleotide CRH NBRE 5′-[…]-3′ (SEQ ID NO:152) was used in the mobility shift assay.

[3] = test system: NURR1 mRNA; assay: Northern blot of NURR1 mRNA in synovium explants; settings: RA and PsA synovium explants; CRH 10^−8 M; IL-6 10 ng/ml
Protocol: To determine whether the NURR subfamily contribute to CRH signaling in a pathological context, freshly excised RA (FIG. 4A) and PsA synovium explants were incubated with CRH (10^−8 M) and examined for its ability to induce expression of NURR1 and NUR77 transcripts. […] Furthermore, analysis of synovium explants indicates higher endogenous and CRH-inducible NURR1 mRNA compared to NUR77 transcript levels.
In FIG. 4 total RNA was extracted and northern blot analysis was performed. Filters were hybridized with a cDNA for NURR1 or NUR77 and also with GAPDH to control for loading and transfer. Synovial explants were left untreated [C] or incubated with 10^−8M CRH for the indicated times. (FIG. 4A) Confluent monolayers of primary synoviocytes were left untreated [C] or pretreated with 10^−8M dexamethasone (DEX) for 2 h prior to the addition of 25μM forskolin (FOR) or 20 ng/ml of phorbal myristic acetate (PMA). (FIG. 4B)
For FIG. 6 each membrane was reprobed with a GAPDH cDNA to control for loading and transfer. NURR1 mRNA levels were measured by northern analysis using total RNA extracted from synoviocytes left untreated [C] or cultured for the time indicated with (A) TNFα (10 ng/ml) in the presence or absence of pre-treatment with 10^−8M dexamethasone (DEX). (B) IL-1β(10 ng/ml) in the presence or absence of pretreatment with 2 μM indomethacin (INDO) or 10^−8M DEX. (C) or synovial explants cultured with IL-6 (10 ng/ml). (D) 1 μM PGE2. (E) 25 μM forskolin (FOR) or […] for 1h in the absence or presence of 5 µg/ml cycloheximide (CHX).
as §1

[4] = test system: synoviocytes; assay: Synoviocyte morphological transformation (fibroblast-like to stellate); settings: primary PsA synoviocytes, untreated vs TNFα

Molecule | NOR1 mRNA expression levels [1] | binding of nuclear protein complexes with the CRH NBRE [2] | NURR1 mRNA induction in synovium explants [3] | synoviocyte morphology after stimulation [4]
CCCCC[C@H](O)/C=C/[C@H]1[C@H](O)CC(=O)[C@@H]1C/C=C\CCCC(=O)O [PGE2, reference compound] | only a moderate increase | significant increased binding | – | –
IL-1β: pro-inflammatory cytokine | – | significant increased binding | – | –
IL-6: pro-inflammatory cytokine | – | – | rapid and marked increase | –
TNFα | increased | significant increased binding | – | stellate shape

Reference: US20020049151A1, “Therapeutic approaches to diseases by suppression of the NURR subfamily of nuclear transcription factors” (priority 2000, published 2002)
